Experiments:
L6 = assay: Cytotoxicity against rat L6 cells after 72 hrs by Alamar blue assay; format: cell-based; settings: L6, 72 h
[1] = Selectivity index, ratio of IC50 for rat L6 cells to IC50 for erythrocytic stages of Plasmodium falciparum NF54; format: toxicity, cell-based; settings: read-out: Ratio IC50
Plasmodium falciparum = assay: Antiplasmodial activity against chloroquine-sensitive erythrocytic stage Plasmodium falciparum NF54 assessed as [3H]hypoxanthine incorporation after 48 to 72 hrs by Betaplate liquid scintillation counting; format: functional, organism-based

Compound | IC50 (Plasmodium falciparum) [µM] | IC50 (L6; read-out: IC50) [µM] | selectivity ratio [1] | IC50 (L6) [µM]
CC(=O)O[C@@H]1C[C@H]2C(C)(C)[C@H](O)CC[C@]2(C)[C@H]2CC[C@]3(C)C(=CC[C@H]3[C@@H]3C[C@H]([C@H](O)C(C)(C)O)OC3=O)[C@@]21C | 2 | 42.4 | 21 | –
CC(C)=CC(=O)O[C@H]1CC[C@]2(C)[C@H]3CC[C@]45C[C@]4(CC[C@H]5[C@@H]4C[C@H]([C@H](O)C(C)(C)O)O[C@H]4O)[C@]3(C)[C@H](O)C[C@H]2C1(C)C | 1.4 | 6.5 | 4.4 | –
C=C(C)[C@@H]1CC=C2[C@H](CC[C@@]3(C)[C@H]([C@@H](C)CC(O)C(O)C(C)(C)O)CC[C@]23C)[C@@]1(C)CCC(=O)O (stereo partly drawn) | 19.3 | 56.1 | 2.9 | –
COc1cc([C@@H]2c3cc4c(cc3[C@H](O)[C@H]3COC(=O)[C@H]23)OCO4)cc(OC)c1OC [PODOFILOX] | – | – | – | 0.012

The next lines start with results.

IC50 (Plasmodium falciparum) [µM] | Compound | IC50 (L6; read-out: IC50) [µM] | selectivity ratio [1] | IC50 (L6) [µM]
0.67 | CC(=O)O[C@@H]1C[C@H]2C(C)(C)C(=O)C=C[C@]2(C)[C@H]2CC[C@]3(C)C(=CC[C@H]3[C@@H]3C[C@H]([C@H](O)C(C)(C)O)OC3=O)[C@@]21C | 70.6 | 105 | –
1.3 | CC(C)(O)[C@H](O)[C@H]1C[C@@H]([C@@H]2CC=C3[C@]4(C)[C@H](O)C[C@H]5C(C)(C)C(=O)C=C[C@]5(C)[C@H]4CC[C@]32C)C(=O)O1 | 32.3 | 25.2 | –
0.44 | CC(=O)O[C@@H]1C[C@H]2C(C)(C)C(=O)C=C[C@]2(C)[C@H]2CC[C@]3(C)C(=CC[C@H]3[C@@H]3C[C@H]([C@@H]4OC4(C)C)OC3=O)[C@@]21C | 5.3 | 12.1 | –
0.87 | CC(=O)O[C@@H]1CC[C@]2(C)[C@H]3CC[C@]4(C)C(=CC[C@H]4[C@@H]4C[C@H]([C@H](O)C(C)(C)O)OC4=O)[C@]3(C)[C@H](OC(C)=O)C[C@H]2C1(C)C | 11 | 12.7 | –
1.3 | CO[C@@H]1O[C@@H]([C@H](O)C(C)(O)CO)C[C@H]1[C@@H]1CC[C@]23C[C@]12CC[C@@H]1[C@@]2(C)CC[C@H](OC(=O)C=C(C)C)C(C)(C)[C@@H]2C[C@@H](O)[C@]13C (stereo partly drawn) | 11.9 | 9 | –
1.3 | CC(C)=CC(=O)O[C@H]1CC[C@]2(C)[C@H]3CC[C@]45C[C@]4(CC[C@H]5[C@@H]4C[C@H]([C@@H]5O[C@@]5(C)CO)O[C@H]4O)[C@]3(C)[C@H](O)C[C@H]2C1(C)C | 8.6 | 6.8 | –
